This is an account of results in ChEMBL document CHEMBL6153157, “Novel 3-Aminothieno[2,3-b]pyridine-2-carboxamides with Activity against Mycobacterium tuberculosis” (ACS Med Chem Lett, 2025).

In series [1] the test system is Mycobacterium tuberculosis. Nature of the series: Antibacterial activity against wild type Mycobacterium tuberculosis H37Rv-LP DREAM8 strain expressing codon-optimized DsRed assessed growth inhibition incubated for 5 days by fluorescence spectrophotometric assay. Format: functional. The settings on record: H37Rv-LP DREAM8, 120 h, time 5 day.
The nature of series [2]: Cytotoxicity against human HepG2 cells assessed as cell growth inhibition incubated for 3 days by CellTiter-Glo reagent-based luminescence assay. Format: toxicity.
Series [3] is described as follows: Selectivity index, ratio of IC50 for cytotoxicity against human HepG2 cells to IC90 for antibacterial activity against wild type Mycobacterium tuberculosis H37Rv-LP DREAM8 strain expressing codon-optimized DsRed. Format: toxicity, cell-based.
Series [4] has as its system Mycobacterium tuberculosis. Nature of the series: Antibacterial activity against Mycobacterium tuberculosis LepB-UE strain under expressing signal peptidase LepB assessed growth inhibition incubated for 5 days by fluorescence spectrophotometric assay. Format: functional. Particulars: 120 h, time 5 day.

As for `CCC(NC(=O)c1sc2nc(-c3ccc(OC)cc3)cc(C(F)(F)F)c2c1N)c1ccccc1` (stereo not given), it took 0.74 µM to reach the 90% level in series [1] (IC90). Further, in series [2], the IC50 at 3 days was over 100 µM. Also, the selectivity ratio in series [3] was over 135.
For `COc1ccc(-c2cc(C(F)(F)F)c3c(N)c(C(=O)Nc4cc(C)cc(C)c4)sc3n2)cc1` the same measures were over 100 µM, 47 µM and under 1.
On the same counts, the results for `COc1ccc(-c2cc(C(F)(F)F)c3c(N)c(C(=O)NCc4ccccc4C)sc3n2)cc1` are 2.4 µM, 23 µM and 10.
On the same counts, the results for `COc1ccc(-c2cc(C(F)(F)F)c3c(N)c(C(=O)Nc4cc(C)ccc4C)sc3n2)cc1` are over 100 µM, 23 µM and under 1.
For the molecule `COc1ccc(-c2cc(C(F)(F)F)c3c(N)c(C(=O)NC(C)c4ccccc4)sc3n2)cn1` (stereo not given), the IC90 in series [1] was found to be 1.2 µM; in series [4], 0.41 µM. Also, the IC50 at 3 days in series [2] amounted to 19 µM.
In series [1], `COc1ccc(-c2cc(C(F)(F)F)c3c(N)c(C(=O)Nc4ccc(C)c(C)c4)sc3n2)cc1` came in with an IC90 of over 100 µM. For the same molecule, the half-maximal inhibitory concentration (IC50) at 3 days in series [2] is 79 µM. The selectivity ratio in series [3] is under 1.
Turning to `COc1ccc(-c2cc(C(F)(F)F)c3c(N)c(C(=O)NC(C)c4ccccc4)sc3n2)cc1` (stereo not given), the IC90 in series [1] turned out to be 0.63 µM. Besides, the half-maximal inhibitory concentration (IC50) at 3 days in series [2] is 52 µM. For the same molecule, the selectivity ratio in series [3] was 83.
On the same counts, the results for `COc1ccc(-c2cc(C(F)(F)F)c3c(N)c(C(=O)NCc4ccccc4)sc3n2)cc1` are over 100 µM, 88 µM and under 1.
For `COc1ccc(-c2cc(C(F)(F)F)c3c(N)c(C(=O)NC4CC5(C4)CN(C(=O)OC(C)(C)C)C5)sc3n2)cc1` the same measures were over 100 µM, 12 µM and under 1.
For `COc1ccc(-c2cc(C(F)(F)F)c3c(N)c(C(=O)NC(C)C4CCCCC4)sc3n2)cc1` (stereo not given) the same measures were 1.1 µM, over 100 µM and over 91.
In series [1], `COc1ccc(-c2cc(C(F)(F)F)c3c(N)c(C(=O)NC45CC6CC(CC(C6)C4)C5)sc3n2)cc1` showed an IC90 of 1.1 µM. For the same molecule, in series [2], the IC50 at 3 days was over 100 µM. Besides, in series [3], the selectivity ratio was under 91.
On the same counts, the results for `COc1ccc(-c2cc(C(F)(F)F)c3c(N)c(C(=O)NCCc4ccccc4)sc3n2)cc1` are over 100 µM, 23 µM and under 1.
For `COc1ccc(-c2cc(C(F)(F)F)c3c(N)c(C(=O)NCC45CC6CC(CC(C6)C4)C5)sc3n2)cc1` the same measures were 1.4 µM, over 100 µM and under 71.
For `COc1ccc(-c2cc(C(F)(F)F)c3c(N)c(C(=O)NCc4cccc(C)c4C)sc3n2)cc1` the same measures were 1.3 µM, 50 µM and 38.
The molecule `COc1ccc(-c2cc(C(F)(F)F)c3c(N)c(C(=O)NC45CC6CC(CC(O)(C6)C4)C5)sc3n2)cc1` gave an IC90 in series [1] of 7.5 µM. Further, the IC50 at 3 days in series [2] turned out to be 19 µM. Further, in series [3], the selectivity ratio turned out to be 3.
